{"source": "patent US8975259B2", "about": "“Compositions and methods for inhibiting G protein signaling” (University of Rochester, priority 2007, dated 2015)", "key": {"[1]": {"test_system": "GRK2 translocation in differentiated HL60 cells", "assay": "fMLP-dependent GRK2 translocation to membrane in differentiated HL60 cells", "format": "cell-based, human", "conditions": "10 μM compound, 250 nM fMLP; result in words", "method": "(§1) Cells were pretreated with DMSO or 10 μM compounds for 5 min prior to stimulation with 250 nM fMLP. […] Normalized peak Ca^2+ responses were pooled from three independent experiments each (mean±SEM). Cells were pretreated with DMSO (▪) or compounds (▴) for 5 min prior to stimulation. FIG. 5C is the same as A except 10 μM M201 was tested. […] Differentiated HL60 cells were treated with 10 μM compound prior to stimulation with 250 nM fMLP. Translocation of endogenous GRK2 was determined by Western blotting with a GRK2 antibody and quantitative chemiluminescence. Data are mean±SEM from 5 experiments, * P<0.05, **P<0.01 ANOVA. […] Differentiated HL60 cells stably over-expressing GFP-PHAkt were treated with 10 μM compound prior to stimulation with 100 nM fMLP. Translocation of GFP-PHAkt to the membrane was determined by Western blotting with an anti-GFP antibody and quantitative chemiluminescence. Data are mean±SEM from 4 experiments. *** P<0.001 ANOVA. […] Differentiated HL60 cells were pretreated with 10 μM of compound prior to stimulation with 1 μM fMLP for 5 min. Levels of phosphorylated and total ERK were determined by Western blotting."}, "[2]": {"test_system": "ATP-dependent Ca2+ increase in differentiated HL-60 neutrophils", "assay": "ATP-dependent Ca2+ increase in differentiated HL-60 neutrophils", "format": "cell-based, human", "conditions": "result in words", "method": "(§2) (Collins, et al. (1978) Proc. Natl. Acad. Sci. USA 75:2458; Collins, et al. (1979) J. Exp. Med. 149:969). Neutrophils were preloaded with fura-2 (1 μM), a fluorescent Ca^2+-sensitive indicator (Suh, et al. (1996) J. Biol. Chem. 271:32753), for 45 minutes, washed with HBSS and resuspended in 2 mL of indicator-free HBSS. An 140 μL aliquote of cells was added to a total of 2 mL HBSS. Fluorescence ratios were taken by dual excitation at 340 and 380 nm and emission at 510 nm. After a stable baseline was established, either DMSO or NSC119910 was added and incubated for 5 minutes. Subsequently, either fMLP or ATP agonists were added to activate release of Ca^2+ from intracellular stores."}, "[3]": {"test_system": "M3 muscarinic receptor-dependent Ca2+ release in HEK-293 cells", "assay": "Carbachol-dependent Ca2+ release in HEK-293 cells expressing M3 muscarinic receptor", "format": "cell-based", "conditions": "10 μM; result in words"}, "[4]": {"molecular_target": "T1, Fαi1GDPβ1γ2 heterotrimer (UniProt P54311+P63212)", "T1 construct": "made in house; host or cells: b-βγ: Sf9 insect cells", "T1 sequence (P54311 whole entry)": "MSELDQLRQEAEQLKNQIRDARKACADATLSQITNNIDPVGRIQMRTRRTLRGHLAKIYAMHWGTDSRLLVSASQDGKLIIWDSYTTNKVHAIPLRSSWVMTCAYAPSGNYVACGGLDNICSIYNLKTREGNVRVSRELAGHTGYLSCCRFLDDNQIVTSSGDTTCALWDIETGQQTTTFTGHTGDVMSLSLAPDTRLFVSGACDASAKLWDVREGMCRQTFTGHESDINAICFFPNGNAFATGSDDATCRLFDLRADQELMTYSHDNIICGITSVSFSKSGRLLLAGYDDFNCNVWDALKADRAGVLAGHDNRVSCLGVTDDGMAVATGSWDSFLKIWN", "T1 sequence (P63212 2-68 limits assumed)": "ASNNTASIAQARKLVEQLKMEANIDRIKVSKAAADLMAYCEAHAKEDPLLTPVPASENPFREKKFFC", "assay": "Dissociation of Fαi1 from preformed Fαi1β1γ2 heterotrimer (flow cytometry)", "format": "binding", "conditions": "result in words"}, "[5]": {"test_system": "morphine-dependent antinociception in PLCβ3 −/− mice", "assay": "55° C. tail-flick antinociception in PLCβ3 −/− mice", "format": "in vivo, mouse", "conditions": "100 nmol i.c.v.; result in words"}, "[6]": {"test_system": "fMLP-dependent Ca2+ release in differentiated HL60 cells", "assay": "fMLP-dependent Ca2+ release in fura-2 loaded DMSO-differentiated HL60 cells", "format": "cell-based, human", "conditions": "10 μM compound, 250 nM fMLP, result in words", "method": "as §1\nCa^2+ fluxes were measured using two 35 mL cultures of differentiated HL-60 neutrophil cultures (0.2×10^6 cells/mL). Cells were cultured for three days with in DMSO\n(1.2%), washed in HSS and resuspended in 2 mL HBSS at a concentration of 7×10^s cells/mL. Addition of DMSO to the growth medium induces differentiation of these cells into morphologically and functionally mature neutrophils\nas §2, with “Subsequently, either fMLP or ATP agonists were added to activate release of Ca^2+ from intracellular stores.” left out"}, "[7]": {"test_system": "isoproterenol-induced heart failure in mice", "assay": "Isoproterenol mini-osmotic pump acute model of heart failure", "format": "in vivo, mouse", "conditions": "result in words", "method": "Conscious echocardiography was performed on animals prior to sacrifice. % FS is a measure of cardiac contractility derived from end-diastolic and end-systolic diameters. […] Heart weight to body weight ratio (HW:BW) was assessed upon sacrifice of the animal. (n=7-8 per condition)\nImmunoblot for GRK2 of equal amounts of total protein isolated from hearts of adult C57/B16 male mice following 1 week of either vehicle or Iso (30 mg/kg/day) delivered by miniosmotic pumps (Veh, . . . or Iso, . . . , respectively) and concurrent daily vehicle or M119 (100 mg/kg) daily injections ( . . . , Veh, or . . . , Cmpd, respectively).\nBased on the positive cardiomyocyte data, the cardiac effects of M119 were tested in vivo. The NCI compound database and chemical library was originally assembled to investigate these compounds utilizing both a yeast high-throughput screening assay as well as in vivo compound delivery to mice for 1-2 weeks. […] Wild type mice were implanted with mini-osmotic pumps filled with either vehicle or the non-selective β-AR agonist isoproterenol. These pumps release a constant fluid volume, and 30 mg/kg/day of isoproterenol (Iso) has been used to attain pathologic cardiac hypertrophy and dysfunction in one week Immediately following mini-osmotic pump implantation of vehicle or Iso (30 mg/kg/day), mice from each group were injected intraperitoneal (IP) once daily with equal volumes of either vehicle or a moderate dose of M119 (100 mg/kg) for seven days. […] The Iso pumped animals indeed suffered a decrease of cardiac function coupled with pathologic hypertrophy."}, "[8]": {"test_system": "human δ opioid receptor (hDOR-CHO cells)", "assay": "Total inositol phosphate assay in hDOR-CHO cells", "format": "cell-based", "conditions": "DPDPE, Deltorphin II, M119 10 μM; naltrindole 100 μM; result in words", "method": "Chinese hamster ovary (CHO) cells stably expressing either the human κ (hKOR-CHO), δ (hDOR-CHO)(L. Toll, Stanford Research Institute, Palo Alto, Calif.) or μ (hMOR-CHO)(G. Uhl, National Institute on Drug Abuse, Baltimore, Md.) opioid receptor were used in the experiments. Cells in 6-well plates were labeled by adding 4 μCi of [^3H]inositol for 24 hr in inositol-free F-10 media, without serum. After labeling, LiCl was added directly to the labeling media at a final concentration of 10 mM. Ligands or peptides were added at the same time. The final volume of each well was 1 mL. The plates were put back in to the incubator at 37° C. for 30 min after which time the medium was aspirated and the plates were washed twice with 1× PBS. Ice-cold 50 mM formic acid, 1 mL, was added to the plates which were placed in the cold room at 4° C. for 30 min. After the incubation, the contents of the plates were applied to Dowex AG1-X8 columns and allowed to flow all the way through the column. The columns were washed, twice each, with 50 and 100 mM formic acid, for a total of four washes, followed by elution of the IP-containing fraction with 3 mL of 1.2 M ammonium formate/0.1 M formic acid. The eluted fraction was mixed with Scintisafe scintillation fluid, for high salt, and counted. The data are represented as the fold increase over control in total inositol phospates. All experiments were repeated three times and performed in duplicate. Control cells for each experiment were labeled with [^3H]inositol and LiCl, in the same manner as the treatment groups."}, "[9]": {"conditions": "250 mg/kg/day for two weeks, delivered by the NCI; cited from earlier work"}}, "note": "Entries after “also recorded” stand apart in the source; their conditions may differ."}
{"smiles": "O=C(O)C1CCCCC1c1c2ccc(=O)c(O)c-2oc2c(O)c(O)ccc12", "note": "(stereo not shown) [Compound M119, cyclohexanecarboxylic acid, 2-(4,5,6-trihydroxy-3-oxo-3H-xanthen-9-yl)-(9cl)]", "values": [{"measurement": "effect on fMLP-dependent GRK2 translocation to the membrane fraction", "setting": "[1]", "value": "substantially inhibited"}, {"measurement": "effect on ATP-induced [Ca^2+] increase", "setting": "[2]", "value": "not significantly suppressed"}, {"measurement": "effect on carbachol-dependent increases in Ca^2+", "setting": "[3]", "value": "no effect"}, {"measurement": "promotion/acceleration of heterotrimer dissociation", "setting": "[4]", "value": "did not promote dissociation"}, {"measurement": "effect on morphine-dependent antinociception in PLCβ3 −/− mice", "setting": "[5]", "value": "no effect"}, {"measurement": "effect on fMLP-induced Ca^2+ increase", "setting": "[6]", "value": "attenuated"}, {"measurement": "effect on fMLP-induced Ca^2+ increase", "setting": "[6]; listed as NSC119910", "value": "suppressed; also recorded: block"}, {"measurement": "effect on interstitial cardiac fibrosis", "setting": "[7]; Iso 30 mg/kg/day pump, M119 100 mg/kg IP daily, seven days", "value": "reduction in interstitial cardiac fibrosis"}, {"measurement": "effect on cardiac function and morphology in Iso pumped animals", "setting": "[7]; Iso 30 mg/kg/day pump, M119 100 mg/kg IP once daily, seven days", "value": "near normalization of cardiac function and morphology"}, {"measurement": "effect on GRK2 expression in the Iso HF model", "setting": "[7]; M119 100 mg/kg IP daily", "value": "nearly normalized"}, {"measurement": "effect of compound alone on cardiac function or morphology", "setting": "[7]; vehicle pump, M119 100 mg/kg IP daily", "value": "no effect"}, {"measurement": "effect on IP generation over control treated cells", "setting": "[8]", "value": "no significant effect"}, {"measurement": "toxicity", "setting": "[9]", "value": "no reported overt evidence of toxicity"}]}
